“Also recorded” adds a separate entry of the source.
Assays:
[1] = tested on: HSCs (α-SMA, LC3, p62 expression); assay: Western blotting of α-SMA, LC3 and p62 in HSCs stimulated with TGF-β1; assay type: cell-based; details: TGF-β1+PHT vs TGF-β1 alone; PHT sodium 200 μM; p<0.05
Experimental: Extraction of cell protein: the cells that need to be extracted protein are removed from the incubator, rinsed twice with the prepared PBS solution, placed on a clean filter paper, and the remaining PBS is dried. Then, a certain amount of radio immunoprecipitation assay (RIPA) protein lysis solution is added according to the growth of the cells, and the protein is lysed for about 30 minutes. Then, the lysed protein stock solution is scraped with a scraper, placed in prepared EP tubes, and then placed in a high-speed centrifuge and centrifuged at 12,000 rpm at 4° C. for 30 minutes. After centrifugation is completed, the supernatant is taken for subsequent protein quantification.

[2] = tested on: carbon tetrachloride (CCl4) induced liver fibrosis; assay: Mouse model of liver fibrosis induced by CCl4, treatment group given PHT sodium
[3] = tested on: hepatic stellate cells (HSCs); assay: CCK-8 detection of the effect of PHT sodium on proliferation of HSCs; assay type: cell-based; details: CCK-8, 48 hours; read-out: IC50 value on HSC proliferation
Experimental: 1) Cell recoveries are performed as follows. After irradiation with an ultraviolet lamp for 30 minutes on a super clean bench, white light and circulating air flow are turned on, a centrifuge tube is taken, and 3 mL of culture medium is added into the centrifuge tube. The frozen cells are quickly taken out of a refrigerator at −80° C. and put into a constant-temperature water bath at 37° C. to be thawed, and then the cells are sucked out from the super clean bench and put into the prepared centrifuge tube. After sealing, the cells are centrifuged in a centrifuge for 5 minutes (at a speed of 1000 rpm), then a culture flask is prepared, the name and date of the cells are marked, the supernatant is poured out after centrifugation, and a new culture medium is added to blow and mix. Finally, the mixed cells are added to the marked culture flask, and the flask is sprayed with 75% alcohol and placed in a constant temperature incubator for culture. 2) Cell passage is performed as follows. […] The cells in good condition are digested, and then the cells are counted. […] After 1-4 hours of incubation in the incubator, the absorbance is detected by a microplate reader.

[4] = Drug group: healthy mice given PHT sodium alone, compared with normal control group; assay type: in vivo, male C57 mice
HSCs induced by TGF-β1 = assay: CCK-8 detection of the effect of PHT sodium on TGF-β1 induced proliferation of HSCs; assay type: cell-based; details: PHT sodium 200 μM, p<0.05
Experimental: The cells in good condition are digested, and then the cells are counted. After counting the concentration ratio, the corresponding volume of cell suspension and culture medium are taken to make the cell concentration required for the experiment. The cells are fully mixed and added to a 96-well plate. According to the experimental requirements, different interventions are given to the cells. After 48 hours, 10% CCK8 solution (the ratio between culture medium and CCK8 is 10:1) is added to each well. After 1-4 hours of incubation in the incubator, the absorbance is detected by a microplate reader.
The effect of TGF-β1 on the proliferation of HSCs is detected by the CCK8 method.

[5] = treatment group vs model group, p<0.05
[6] = drug group vs normal control group

In the case of `O=C1NC(=O)C(c2ccccc2)(c2ccccc2)N1` [PHT sodium, phenytoin sodium], the “expression of autophagy substrate protein p62 in HSCs” value [1] is reported as “significantly increased”, the “expression of autophagy-related protein LC3 in HSCs” value [1] is reported as “significantly decreased” and the “expression of α-SMA in HSCs” value [1] is reported as “significantly lower; also recorded: decreased”. For the same compound, the “collagen content in the liver of mice” value ([2]; staining of liver sections) was “reduce”, the “liver texture (appearance of the liver, naked eye)” value ([2]; treatment group vs model group) was “softer than that of the model group” and the “activity of the mice” value ([2]; treatment group vs model group, PHT sodium 1 mM, 10 mL/kg i.p. once a day) was “significantly increased”. The “degree of liver fibrosis (HE, Masson's trichrome, picric-Sirius red staining)” value ([2]; treatment group vs model group, liver sections) was “reduced”, the “expression of LC3 in liver tissue (Western blotting)” value [2, 5] was “decreased” and the “expression of p62 in liver tissue (Western blotting)” value [2, 5] was “increased”. For the same compound, the “expression of α-SMA in liver tissue (Western blotting)” value [2, 5] was “decreased”, the “positive expression of α-SMA in liver sections (immunohistochemistry)” value [2, 5] was “decreased compared with the model group” and the “transaminase (ALT, AST) in serum” value [2, 5] was “lower than that in the model group”. The IC50 [3] was 234 µM, the “liver lobules (HE, Masson's trichrome, picric-Sirius red staining)” value ([4]; drug group) was “intact and structurally normal” and the “appearance of the liver” value [4, 6] was “no significant difference”. For the same compound, the “transaminase (ALT, AST) in serum” value [4, 6] was “no significant difference”, the “positive expression of α-SMA in liver sections (immunohistochemistry)” value ([4]; drug group, at edges of hepatic portal vein and central vein) was “only a small amount of positive expression” and the “general state of mice (fur, activity)” value ([4]; drug group, food and water intake normal) was “smooth fur and active activity”. For the same compound, the “proliferation of HSCs promoted by TGF-β1” value (HSCs induced by TGF-β1) was “inhibited”.

— patent US20240390329A1, “APPLICATION OF CHANNEL BLOCKER IN PREPARATION OF DRUGS FOR TREATING AND/OR PREVENTING LIVER FIBROSIS” (Affiliated Hospital of Zunyi Medical University, priority 2023, published 2024)
